Measurements reported in patent publication US11279744B2, “Neuropeptide Y fragment capable of releasing hematopoietic stem cells into blood and treating osteoporosis” (Kyungpook National University Industry-Academic Cooperation …, priority 2017, dated 2022).
No end group written: not given here.

Columns and labels:
[1] = test system: hematopoietic stem cell adhesion factors (Sdf-1a, KitI, Angpt1) present in osteoblasts; test: expression of hematopoietic stem cell adhesion factors in osteoblasts, real-time quantitative PCR; type: cell-based, mouse; conditions: 10 nM peptide for 3 days; compared to osteoblasts (control) not treated with peptides; fold change
Experimental: All mice used in the experiment were 6 to 8 weeks old mice, C57BL/6 mice, and purchased from Jackson Laboratory (Bar Harbor, Me., USA). NPY (21-28) (SEQ ID NO: 1), NPY (24-31) (SEQ ID NO: 2), NPY (29-36) (SEQ ID NO: 3), NPY D25 (21-28) (SEQ ID NO: 4), NPY D26 (21-28) (SEQ ID NO: 5), NPY D25, 26 (21-28) (SEQ ID NO: 6), NPY (21-36) (Osteopep2) (SEQ ID NO: 7) were prepared from Anygen. Full length NPY (SEQ ID NO: 8) was purchased from Bachem. 10 nM of each peptide was diluted in each medium and injected for in vitro experiments. The NPY D^25(21-28) refers to a peptide in which arginine, the fifth amino acid of the amino acid sequence of NPY (21-28), is modified to D-type, the NPY D^26(21-28) refers to a peptide in which the sixth amino acid histidine is modified to D-form, and the D^25,26(21-28) refers to a peptide in which both the fifth and sixth amino acids are modified to D-form, respectively.
Four to six weeks old C57BL/6 mice were sacrificed after anesthesia, and then tibias and femurs were dissected. Bone marrow was harvested from tibias and femurs and single cell suspensions were obtained using a 40 μm cell strainer (Becton-Dickinson LAβware, Franklin Lakes, N.J.). Approximately […] were dispensed into 75-cm 2 flasks containing mesenchymal stem cells Stimulatory Supplements with antibiotics (Stem Cell Technologies, Inc) and MesenCult™ MSCBasal medium. The cells were incubated for 1 week and further incubated for 3 weeks with StemXVivo Osteogenic/Adipogenic Base Media (R & D systems) supplemented with StemXVivo Osteogenic supplement (20×) and penicillin-streptomycin (100×) for differentiation into osteoblasts.
Real-time quantitative PCR was used to measure expression levels of hematopoietic stem cell adhesion factors (Sdf-1a, KitI, Angpt1) present in osteoblasts. Total RNA was extracted from cell eluate and bone marrow cells using the RNeasy Plus mini kit (Qiagen, Korea, Ltd), and cDNAs were synthesized from 5 μg total RNA using a kit in Clontech (Mountain View, Calif.). In addition, using a Corbett research RG-6000 real-time PCR instrument, Real-time quantitative PCR was performed at 95° C. for 10 minutes; at 95° C., for 10 seconds; at 58° C., for 15 seconds; at 72° C. for 20 seconds as one cycle, and 40 cycles were repeated.
First, bone marrow was harvested from 4 to 6 weeks old C57BL6 mice, and mesenchymal stem cells (BM-MSCs) in bone marrow were collected, and then cultured for 3 weeks in osteoblast differentiation induction medium for the differentiation into osteoblasts. After 28 days, each peptide was treated with 10 nM for 3 days, and bone cells were collected and examined for expression levels of three adhesion factors by real-time quantitative PCR. Osteopep2 and its parent NPY were used as positive controls.

[2] = test system: osteoclasts in bone marrow; test: TRAP staining of osteoclasts in bone marrow of osteoporosis animal models; type: in vivo, mouse; conditions: OVX mice, 50 μg/kg i.p. twice a day for 4 weeks; compared to PBS
Experimental: (§1) To make an osteoporosis model, 10-18 12 weeks old female mice per group underwent ovarian ablation. A week later, 50 μg/kg of NPY(21-28), NPY D^25(21-28), NPY D^26(21-28), NPY D^25,26(21-28), Osteopep2, NPY and 100 μl of PBS(Gibco) were intraperitoneally administered twice a day for 4 weeks at 12 hour intervals. Alendronate (Sigma), used as a competitive drug, was intraperitoneally administered once a week for 4 weeks at a dose of 50 μg/kg. As a control group, only Sham model of osteoporosis was performed by subcutaneous dissection of female mouse. Mice were placed in experimental groups using the Block randomization method, and all mouse experiments were approved through the Kyungpook National University Institutional Animal Care and Use Committee.
The femurs were separated from the mice and fixed in 4% paraformaldehyde for 24 hours, and tissue was decalcified in 10% EDTA for 5 weeks. It was then dehydrated with a series of diluted alcohols, paraffinized, and prepared into […] paraffin sections.
For TRAP staining, sections were deparaffinized, stained with 1.33 mM Fast Red Violet LB Salt (Sigma-Aldrich) in 50 mM sodium acetate (pH 5.0) containing 225 μM Naphthol AS-MX phosphate (Sigma-Aldrich, St Louis, Mo., USA), 0.84% N, N-dimethylformamide (Sigma-Aldrich) and 50 mM sodium tartrate, and incubated for 30 minutes. After incubation, the sections were washed with distilled water and counterstained with 1% methyl green.
Histomorphometric analysis was performed using the OsteoMeasure program (Extensive interactive Bone Histomorphometry Analysis System).
After the last administration at 4 weeks of NPY (21-28), the femurs were separated from the mice and the number of osteoclasts in the bone marrow was measured by TRAP staining.
After the last administration at 4 weeks of NPY D^25(21-28), NPY D^26(21-28), and NPY D^25,26(21-28), the femurs were separated from the mice and the number of osteoclasts in the bone marrow was measured by TRAP staining.

[3] = test system: animal models of osteoporosis; test: Micro CT bone density in animal models of osteoporosis; type: in vivo, mouse; conditions: OVX mice, 50 μg/kg i.p. twice a day for 4 weeks; femur microCT; compared to PBS
Experimental: as §1, with “Committee. The femurs were separated from the mouse and refrigerated in 80% ethanol, and in order to measure change of bone density, the bone volume/total volume and trabecular thickness were measured by analyzing the area between 0.7 mm and 2.3 mm from the growth plate baseline with the Quantum FX microCT Imaging System. Femurs were separated from mice after the last administration of NPY (21-28) at 4 weeks. To determine the change of bone density, bone density (bone volume/total volume) and bone tissue thickness (trabecular thickness) were measured with the Quantum FX microCT Imaging System. Femurs were separated from mice after the last administration of NPY D^25(21-28), NPY D^26(21-28), and NPY D^25,26(21-28) at 4 weeks. To determine the change of bone density, bone density (bone volume/total volume) and bone tissue thickness (trabecular thickness) were measured with the Quantum FX microCT Imaging System.” for “Committee.”

In the case of “NPY (24-31): recombinant peptide consisting of eight amino acids of NPY, SEQ ID NO: 2 (LRHYINLI; synthetic neuropeptide Y fragment (24-31))”, the “expression levels of Sdf-1a, KitI, and Angpt1 in osteoblasts” value [1] is reported as “decreased only in osteoblasts treated with NPY (21-28)”.
With “NPY (29-36): recombinant peptide consisting of eight amino acids of NPY, SEQ ID NO: 3 (NLITRQRY; ends and bridges not checked)” the “expression levels of Sdf-1a, KitI, and Angpt1 in osteoblasts” value [1] was “decreased only in osteoblasts treated with NPY (21-28)”.
“NPY: full length neuropeptide Y purchased from Bachem, used as positive control [reference compound]” was tested, and the “number of TRAP positive osteoclasts in bone marrow (Number of osteoclast/Bone surface)” value [2] was “reduced”, the “osteoclast surface (Osteoclast surface/Bone surface)” value [2] was “reduced” and the “bone tissue thickness (trabecular thickness)” value [3] was “increased”. For the same substance, the “percentage of bone density (BV/TV)” value [3] was “increased”.
